This note sets out measurements from US8242280B2, “Fused ring heterocycle kinase modulators” (SGX Pharmaceuticals, Inc., priority 2007, dated 2012).

Each structure is given as a SMILES string. Where only a bound is given, the exact number is not on record here.

For experiment [1], the target named is T1, unphosphorylated T315I Abl kinase domain (Mus musculus, UniProt P00520, T315I).
T1 construct: purified and unphosphorylated T315I Abl kinase domain; made in house; host or cells: E. coli BL21(DE3) (Codon+RIL or pSA0145 strain)
T1 sequence (P00520 242-493 T315I limits assumed): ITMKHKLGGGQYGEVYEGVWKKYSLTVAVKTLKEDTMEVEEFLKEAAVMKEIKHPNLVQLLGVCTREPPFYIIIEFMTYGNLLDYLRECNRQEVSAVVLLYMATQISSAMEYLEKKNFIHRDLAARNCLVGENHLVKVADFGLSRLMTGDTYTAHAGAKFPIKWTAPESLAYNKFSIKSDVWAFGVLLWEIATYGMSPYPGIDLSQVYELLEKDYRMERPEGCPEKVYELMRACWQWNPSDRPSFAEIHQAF
In words: c-Abl T315I 0P bioassay (pyruvate kinase/lactate dehydrogenase coupled enzyme assay). It is filed as biochemical. As to conditions: zero phosphorylation state (0P), 10 μM ATP, read-out: AbI T315I 0P IC50.

In experiment [2] the target is Ba/F3 cells, ABL1 T315I (Homo sapiens, UniProt P00519, T315I, cells depend on it). Description: 96-well XTT cell survival assay, Ba/F3 ABL1 T315I. It is filed as cell-based. As to conditions: 72 hours, read-out: ABL1 T315I XTT [Ba/F3] IC50. The essentials: (§1)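 Ba/F3 cells carrying wild-type or T315I ABL1 were seeded at 5000-8000 per well with graded compound concentrations in duplicate and grown 72 hours at 37° C. Survival was read by XTT/PMS reduction after a further 2-6 h, as absorbance at 405 nm with 650 nm background correction.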
(Tetrazolium dyes change colour on reduction, which living cells bring about.)

The target in experiment [3] is Ba/F3 cells, ABL1 WT (Homo sapiens, UniProt P00519). Description: 96-well XTT cell survival assay, Ba/F3 ABL1 WT. It is filed as cell-based. As to conditions: 72 hours, read-out: ABL1 WT XTT [Ba/F3] IC50. The essentials: as §1

On to `COc1ccccc1-c1n[nH]c2ncc(-c3cccc(C(O)C(=O)NC4CCN(C)CC4)c3)cc12` (stereo not drawn), for which the IC50 (commonly the concentration at which inhibition is half-maximal) in experiment [1] was less than 50 nM. Besides, the GI50 in experiment [2] and in experiment [3] was greater than 1000 nM each time.
As for `COc1ccccc1-c1n[nH]c2ncc(-c3cccc(C(O)C(=O)N(C)C)c3)cc12` (stereo not drawn), the IC50 in experiment [1] is less than 50 nM. The GI50 in experiment [2] and in experiment [3] was less than 1000 nM each time.
As to `COc1ccccc1-c1n[nH]c2ncc(-c3cccc(C(O)C(=O)N4CCC(O)C4)c3)cc12` (stereo not drawn), the concentration for half-maximal inhibition (IC50) in experiment [1] is less than 50 nM. Moreover, the GI50 in experiment [2] and in experiment [3] was greater than 1000 nM each time.
With `COc1ccccc1-c1n[nH]c2ncc(-c3cccc(C(O)C(=O)N4CCC(O)CC4)c3)cc12` (stereo not drawn), the IC50 in experiment [1] is less than 50 nM. For the same compound, the GI50 in experiment [2] and in experiment [3] was greater than 1000 nM each time.
Consider `COc1ccccc1-c1n[nH]c2ncc(-c3cccc(C(O)C(=O)N4CCC(N(C)C)C4)c3)cc12` (stereo not drawn), for which the IC50 in experiment [1] was less than 50 nM. The GI50 in experiment [2] and in experiment [3] was less than 1000 nM throughout.
In the case of `COc1ccccc1-c1n[nH]c2ncc(-c3cccc(C(O)C(=O)N4CCC[C@@H]4CO)c3)cc12` (stereo partly drawn), in experiment [1], the 50% inhibitory concentration (IC50) was less than 50 nM. The GI50 in experiment [2] and in experiment [3] was less than 1000 nM each time.
For `COC[C@H]1CCCN1C(=O)C(O)c1cccc(-c2cnc3[nH]nc(-c4ccccc4OC)c3c2)c1` (stereo partly drawn), the half-maximal inhibitory concentration (IC50) in experiment [1] is less than 50 nM. In addition, the GI50 in experiment [2] is greater than 1000 nM; in experiment [3] it was less than 1000 nM.
With `COc1ccccc1-c1n[nH]c2ncc(-c3cccc(C(C)O)c3)cc12` (stereo not drawn), the IC50 in experiment [1] is less than 50 nM. In addition, the GI50 in experiment [2] and in experiment [3] was less than 1000 nM throughout.
Regarding `COc1ccccc1-c1n[nH]c2ncc(-c3cccc([C@@H](C)O)c3)cc12`, the IC50 in experiment [1] was less than 50 nM. Besides, the GI50 in experiment [2] and in experiment [3] was less than 1000 nM each time.
For `COc1ccccc1-c1n[nH]c2ncc(-c3cccc(C(C)(O)C(=O)N(C)C)c3)cc12` (stereo not drawn), the IC50 in experiment [1] is less than 50 nM. The GI50 in experiment [2] and in experiment [3] was greater than 1000 nM in each case.
Regarding `COc1ccccc1-c1n[nH]c2ncc(-c3cccc(C(C)(O)C(=O)N(C)CCN(C)C)c3)cc12` (stereo not drawn), the 50% inhibitory concentration (IC50) in experiment [1] was less than 50 nM. For the same compound, the GI50 in experiment [2] and in experiment [3] was greater than 1000 nM throughout.
Consider `COc1ccccc1-c1n[nH]c2ncc(-c3cccc(C(C)(O)C(=O)N4CC(O)C4)c3)cc12` (stereo not drawn), for which, in experiment [1], the concentration for half-maximal inhibition (IC50) was less than 50 nM. Moreover, the GI50 in experiment [2] and in experiment [3] was greater than 1000 nM each time.
As to `COc1ccccc1-c1n[nH]c2ncc(-c3cccc(C(OC)C(=O)N(C)C)c3)cc12` (stereo not drawn), the half-inhibitory concentration (IC50) in experiment [1] was less than 50 nM. Besides, the GI50 in experiment [2] and in experiment [3] was less than 1000 nM throughout.
Take `COc1ccccc1-c1n[nH]c2ncc(-c3cccc(C(OC)C(=O)N(C)CCN(C)C)c3)cc12` (stereo not drawn): in experiment [1], the IC50 is less than 50 nM. The GI50 in experiment [2] and in experiment [3] was less than 1000 nM in each case.
Take `COc1ccccc1-c1n[nH]c2ncc(-c3cccc(C(N)C(=O)N(C)C)c3)cc12` (stereo not drawn): the IC50 in experiment [1] was less than 50 nM. Moreover, the GI50 in experiment [2] and in experiment [3] was less than 1000 nM each time.
Consider `COc1ccccc1-c1n[nH]c2ncc(-c3cccc(C(N)C(=O)N(C)CCN(C)C)c3)cc12` (stereo not drawn), for which the half-inhibitory concentration (IC50) in experiment [1] is less than 50 nM. Moreover, the GI50 in experiment [2] and in experiment [3] was greater than 1000 nM in each case.
`COc1ccccc1-c1n[nH]c2ncc(-c3cccc(C(N)C(=O)N4CC(O)C4)c3)cc12` (stereo not drawn): the concentration for half-maximal inhibition (IC50) in experiment [1] was less than 50 nM. In addition, the GI50 in experiment [2] and in experiment [3] was greater than 1000 nM throughout.
As for `COc1ccccc1-c1n[nH]c2ncc(-c3cccc(C(=O)C(=O)N(C)C)c3)cc12`, in experiment [1], the IC50 is less than 50 nM. In addition, the GI50 in experiment [2] and in experiment [3] was greater than 1000 nM in each case.
Take `COc1ccccc1-c1n[nH]c2ncc(-c3cccc(C(=O)C(=O)N(C)CCN(C)C)c3)cc12`: the IC50 in experiment [1] is less than 50 nM. The GI50 in experiment [2] and in experiment [3] was less than 1000 nM in each case.
Consider `COc1ccccc1-c1n[nH]c2ncc(-c3cccc(C(=O)C(=O)N4CC(O)C4)c3)cc12`, for which the IC50 in experiment [1] was less than 50 nM. Besides, the GI50 in experiment [2] and in experiment [3] was greater than 1000 nM throughout.
Regarding `COc1ccccc1-c1n[nH]c2ncc(-c3cccc(C(O)c4ncco4)c3)cc12` (stereo not drawn), in experiment [1], the IC50 is less than 50 nM. In addition, the results for the GI50 in experiment [2] and in experiment [3] were greater than 1000 nM and less than 1000 nM, respectively.
As to `COc1ccccc1-c1n[nH]c2ncc(-c3cccc(C(O)CO)c3)cc12` (stereo not drawn), the IC50 in experiment [1] is less than 50 nM. For the same compound, the GI50 is greater than 1000 nM in experiment [2] and less than 1000 nM in experiment [3].
For `COc1ccccc1-c1c[nH]c2ncc(-c3cccc(C(O)CN)c3)cc12` (stereo not drawn), the half-inhibitory concentration (IC50) in experiment [1] is less than 50 nM. For the same compound, the GI50 in experiment [2] and in experiment [3] was greater than 1000 nM in each case.
As for `CNC(=O)C(O)c1cccc(-c2cnc3[nH]nc(-c4ccccc4OC)c3c2)c1` (stereo not drawn), the IC50 in experiment [1] was less than 50 nM. Besides, the GI50 in experiment [2] and in experiment [3] was less than 1000 nM in each case.
In the case of `COc1ccccc1-c1n[nH]c2ncc(-c3cccc(C(O)C(=O)N4CC(O)C4)c3)cc12` (stereo not drawn), the IC50 in experiment [1] is less than 50 nM. The GI50 in experiment [2] and in experiment [3] was greater than 1000 nM throughout.
Consider `COc1ccccc1-c1c[nH]c2ncc(-c3cccc(C(O)C(=O)N(C)C)c3)cc12` (stereo not drawn), for which the IC50 in experiment [1] is less than 50 nM. The GI50 in experiment [2] and in experiment [3] was less than 1000 nM each time.
`COc1ccccc1-c1c[nH]c2ncc(-c3cccc(C(O)C(=O)N(C)CCN(C)C)c3)cc12` (stereo not drawn): in experiment [1], the IC50 was less than 50 nM. The GI50 in experiment [2] and in experiment [3] was less than 1000 nM in each case.
Take `COc1ccccc1-c1c[nH]c2ncc(-c3cccc(C(O)C(=O)N4CC(O)C4)c3)cc12` (stereo not drawn): the IC50 in experiment [1] was less than 50 nM. The GI50 was greater than 1000 nM in experiment [2] and less than 1000 nM in experiment [3].
Taken in the same sequence, the figures for `CN(C)C(=O)C(O)c1cncc(-c2cnc3[nH]cc(-c4cnc(N)s4)c3c2)c1` (stereo not drawn) were less than 50 nM, greater than 1000 nM and greater than 1000 nM.
Taken in the same sequence, the figures for `CN(C)C(=O)C(O)c1cc(-c2cnc3[nH]cc(-c4ccccc4F)c3c2)cnc1N` (stereo not drawn) were less than 50 nM, less than 1000 nM and less than 1000 nM.
As to `CN(C)C(=O)C(O)c1cncc(-c2cnc3[nH]cc(-c4ccnn4-c4ccccc4)c3c2)c1` (stereo not drawn), the IC50 in experiment [1] is less than 50 nM. Besides, the GI50 in experiment [2] was greater than 1000 nM; in experiment [3], less than 1000 nM.
As for `Cc1n[nH]cc1-c1c[nH]c2ncc(-c3cncc(C(O)C(=O)N(C)C)c3)cc12` (stereo not drawn), the IC50 in experiment [1] was less than 50 nM. In addition, the GI50 in experiment [2] and in experiment [3] was greater than 1000 nM each time.
As to `Cc1n[nH]c(C)c1-c1c[nH]c2ncc(-c3cncc(C(O)C(=O)N(C)C)c3)cc12` (stereo not drawn), the IC50 in experiment [1] is less than 50 nM. In addition, the GI50 in experiment [2] and in experiment [3] was greater than 1000 nM throughout.
`COc1ccccc1-c1c[nH]c2ncc(-c3cncc(C(O)C(N)=O)c3)cc12` (stereo not drawn): in experiment [1], the IC50 is less than 50 nM. The GI50 in experiment [2] and in experiment [3] was greater than 1000 nM each time.
Consider `CN(C)C(=O)C(O)c1cncc(-c2cnc3[nH]cc(-c4ccccc4OC4CC4)c3c2)c1` (stereo not drawn), for which the IC50 in experiment [1] was less than 50 nM. Moreover, the GI50 in experiment [2] and in experiment [3] was less than 1000 nM in each case.
As to `COc1ccccc1-c1n[nH]c2ncc(-c3cccc(CO)c3)cc12`, the half-inhibitory concentration (IC50) in experiment [1] was greater than 500 nM. For the same compound, the GI50 in experiment [2] and in experiment [3] was less than 1000 nM throughout.
As for `COc1ccccc1-c1n[nH]c2ncc(-c3cccc(CO)n3)cc12`, the IC50 in experiment [1] is less than 50 nM. Moreover, the GI50 is greater than 1000 nM in experiment [2] and less than 1000 nM in experiment [3].
